The compounds below were run on HEK293T cells carrying the ATF4 luciferase reporter (assay: ATF4-Luc assay (ATF4 luciferase reporter, tunicamycin-treated cells)). Details: Homo sapiens, HEK-293T, 1 μg/mL tunicamycin, 7 hours.
Assay type: cell-based
Procedure, shortened: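 A stable HEK293T reporter line was made by placing the full-length human ATF4 5′-UTR ahead of a firefly luciferase sequence without its start methionine, delivered by retroviral transduction and puromycin selection. Cells were seeded at 30,000 per well in polylysine-coated 384-well plates, exposed next day to 1 μg/mL tunicamycin plus compound for 7 hours, and luminescence was read with One Glo.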

Row | SMILES | EC50 [nM]
1 | O=C(COc1ccc(Cl)c(F)c1)NC12CC(NC(=O)c3cncc(CO)n3)(C1)C2 [Compound 1084, N-{3-[2-(4-chloro-3-fluorophenoxy)acetamido]bicyclo[1.1.1]pentan-1-yl}-6-(hydroxymethyl)pyrazine-2-carboxamide] | 1000 to 2000
2 | O=C(COc1ccc(F)cc1)NC12CCC(NC(=O)c3cc(C(F)F)no3)(CC1)C[C@@H]2O [Compound 1099, 3-(difluoromethyl)-N-{(3S)-4-[2-(4-fluorophenoxy)acetamido]-3-hydroxybicyclo[2.2.2]octan-1-yl}-1,2-oxazole-5-carboxamide] | 50 to 250
3 | O=C(NC12CCC(NC(=O)c3cnc(-c4ccccc4)o3)(CC1)[C@@H](O)C2)c1cnc(-c2ccccc2)o1 [Compound 1053, N,N′-[(2S)-2-hydroxybicyclo[2.2.2]octane-1,4-diyl]bis(2-phenyl-1,3-oxazole-5-carboxamide)] | < 50
4 | O=C(COc1ccc(Cl)c(Cl)c1)NC12CCC(NC(=O)c3coc(C(F)F)n3)(CC1)C[C@@H]2O [Compound 1052, N-{(3S)-4-[2-(3,4-dichlorophenoxy)acetamido]-3-hydroxybicyclo[2.2.2]octan-1-yl}-2-(difluoromethyl)-1,3-oxazole-4-carboxamide] | < 50
5 | O=C(COc1ccc(Cl)c(Cl)c1)NC12CCC(NC(=O)c3cc(C(F)(F)F)ccn3)(CC1)C[C@@H]2O [Compound 1030, N-{(3S)-4-[2-(3,4-dichlorophenoxy)acetamido]-3-hydroxybicyclo[2.2.2]octan-1-yl}-4-(trifluoromethyl)pyridine-2-carboxamide] | 50 to 250
6 | O=C(COc1ccc(Cl)c(F)c1)NC12CCC(NC(=O)c3cc(-c4ccccc4)no3)(CC1)C[C@@H]2O [Compound 1018, N-{(3S)-4-[2-(4-chloro-3-fluorophenoxy)acetamido]-3-hydroxybicyclo[2.2.2]octan-1-yl}-3-phenyl-1,2-oxazole-5-carboxamide] | < 50
7 | N#Cc1ccnc(C(=O)NC23CCC(NC(=O)COc4ccc(Cl)c(Cl)c4)(CC2)[C@@H](O)C3)c1 [Compound 1032, 4-cyano-N-{(3S)-4-[2-(3,4-dichlorophenoxy)acetamido]-3-hydroxybicyclo[2.2.2]octan-1-yl}pyridine-2-carboxamide] | < 50
8 | O=C(COc1ccc(Cl)c(Cl)c1)NC12CCC(NC(=O)c3cccc(O)n3)(CC1)C[C@@H]2O [Compound 1025, N-{(3S)-4-[2-(3,4-dichlorophenoxy)acetamido]-3-hydroxybicyclo[2.2.2]octan-1-yl}-6-hydroxypyridine-2-carboxamide] | < 50
9 | CCc1cncc(C(=O)NC23CC(NC(=O)COc4ccc(Cl)c(F)c4)(C2)C3)c1 [Compound 948, N-{3-[2-(4-chloro-3-fluorophenoxy)acetamido]bicyclo[1.1.1]pentan-1-yl}-5-ethylpyridine-3-carboxamide] | < 50
10 | NC(=O)c1cccc(NC23CC(NC(=O)COc4ccc(Cl)c(F)c4)(C2)C3)n1 [Compound 961, 6-({3-[2-(4-chloro-3-fluorophenoxy)acetamido]bicyclo[1.1.1]pentan-1-yl}amino)pyridine-2-carboxamide] | 1000 to 2000
11 | O=C(COc1ccc(Cl)c(Cl)c1)NC12CCC(NC(=O)c3ccccn3)(CC1)CC2 [Compound 993, N-{4-[2-(3,4-dichlorophenoxy)acetamido]bicyclo[2.2.2]octan-1-yl}pyridine-2-carboxamide] | 50 to 250
12 | O=C(COc1ccc(C(F)(F)F)cc1)NC12CCC(NC(=O)c3cc(C(F)F)no3)(CC1)C[C@@H]2O [Compound 1094, 3-(difluoromethyl)-N-[(3S)-3-hydroxy-4-{2-[4-(trifluoromethyl)phenoxy]acetamido}bicyclo[2.2.2]octan-1-yl]-1,2-oxazole-5-carboxamide] | 50 to 250
13 | O=C(COc1ccc(Cl)c(F)c1)NC12CCC(NC(=O)c3cnc(C(F)F)cn3)(CC1)C[C@@H]2O [Compound 986, N-{(3S)-4-[2-(4-chloro-3-fluorophenoxy)acetamido]-3-hydroxybicyclo[2.2.2]octan-1-yl}-5-(difluoromethyl)pyrazine-2-carboxamide] | < 50
14 | O=C(COc1ccc(Cl)c(F)c1)NC12CCC(NC(=O)c3ccc(C(F)F)nc3)(CC1)C[C@@H]2O [Compound 988, N-{(3S)-4-[2-(4-chloro-3-fluorophenoxy)acetamido]-3-hydroxybicyclo[2.2.2]octan-1-yl}-6-(difluoromethyl)pyridine-3-carboxamide] | 50 to 250
15 | O=C(COc1ccc(Cl)c(F)c1)NC12CCC(NC(=O)c3cccc(CO)c3)(CC1)CC2 [Compound 981, N-{4-[2-(4-chloro-3-fluorophenoxy)acetamido]bicyclo[2.2.2]octan-1-yl}-3-(hydroxymethyl)benzamide] | 250 to 1000
16 | O=C(COc1ccc(OC(F)(F)F)cc1)NC12CCC(NC(=O)c3ccc(Cl)c(F)c3)(CC1)[C@@H](O)C2 [Compound 1083, 4-chloro-3-fluoro-N-[(2S)-2-hydroxy-4-{2-[4-(trifluoromethoxy)phenoxy]acetamido}bicyclo[2.2.2]octan-1-yl]benzamide] | > 2000

Row | SMILES | EC50 [nM]
17 | O=C(COc1ccc(Cl)c(F)c1)NC12CCC(NC(=O)c3coc(-c4ccccc4)n3)(CC1)C[C@@H]2O [Compound 1036, N-{(3S)-4-[2-(4-chloro-3-fluorophenoxy)acetamido]-3-hydroxybicyclo[2.2.2]octan-1-yl}-2-phenyl-1,3-oxazole-4-carboxamide] | < 50
18 | CN1CCN(c2ncnc3ccc(NC45CC(NC(=O)COc6ccc(Cl)c(F)c6)(C4)C5)cc23)CC1 [Compound 959, 2-(4-chloro-3-fluorophenoxy)-N-(3-{[4-(4-methylpiperazin-1-yl)quinazolin-6-yl]amino}bicyclo[1.1.1]pentan-1-yl)acetamide] | > 2000
19 | Cn1nc(C(F)F)cc1C(=O)NC12CCC(NC(=O)COc3ccc(Cl)c(Cl)c3)(CC1)[C@@H](O)C2 [Compound 1010, N-{(3S)-4-[2-(3,4-dichlorophenoxy)acetamido]-3-hydroxybicyclo[2.2.2]octan-1-yl}-3-(difluoromethyl)-1-methyl-1H-pyrazole-5-carboxamide] | < 50
20 | O=C(COc1ccc(Cl)c(F)c1)NC12CCC(NC(=O)c3cccc(-c4cccc(F)c4)n3)(CC1)CC2O (stereo not shown) [Compound 952, N-{4-[2-(4-chloro-3-fluorophenoxy)acetamido]-3-hydroxybicyclo[2.2.2]octan-1-yl}-6-(3-fluorophenyl)pyridine-2-carboxamide] | < 50
21 | Cc1cnc(C(=O)NC23CC(NC(=O)c4cnc(-c5ccccc5)o4)(C2)C3)cn1 [Compound 1056, 5-methyl-N-{3-[(2-phenyl-1,3-oxazole-5-carbonyl)amino]bicyclo[1.1.1]pentan-1-yl}pyrazine-2-carboxamide] | 250 to 1000
22 | Cc1ccc(OCC(=O)NC23CCC(NC(=O)c4cc(C(F)F)no4)(CC2)C[C@@H]3O)cc1 [Compound 1098, 3-(difluoromethyl)-N-{(3S)-3-hydroxy-4-[2-(4-methylphenoxy)acetamido]bicyclo[2.2.2]octan-1-yl}-1,2-oxazole-5-carboxamide] | 50 to 250
23 | O=C(COc1ccc(Cl)c(F)c1)NC12CCC(NC(=O)c3cc(-c4ccccc4)on3)(CC1)C[C@@H]2O [Compound 1039, N-{(3S)-4-[2-(4-chloro-3-fluorophenoxy)acetamido]-3-hydroxybicyclo[2.2.2]octan-1-yl}-5-phenyl-1,2-oxazole-3-carboxamide] | < 50
24 | O=C(COc1ccc(Cl)c(F)c1)NC12CCC(NC(=O)c3cc4cccn4cn3)(CC1)C[C@@H]2O [Compound 976, N-{(3S)-4-[2-(4-chloro-3-fluorophenoxy)acetamido]-3-hydroxybicyclo[2.2.2]octan-1-yl}pyrrolo[1,2-c]pyrimidine-3-carboxamide] | 50 to 250
25 | O=C(CCOc1ccc(Cl)c(F)c1)NC12CC(NC(=O)c3ccc(OC(F)(F)F)cn3)(C1)C2 [Compound 1079, N-{3-[3-(4-chloro-3-fluorophenoxy)propanamido]bicyclo[1.1.1]pentan-1-yl}-5-(trifluoromethoxy)pyridine-2-carboxamide] | > 2000
26 | O=C(COc1ccc(Cl)c(F)c1)NC12CCC(NC(=O)c3nc(-c4ccccc4)cs3)(CC1)C[C@@H]2O [Compound 1038, N-{(3S)-4-[2-(4-chloro-3-fluorophenoxy)acetamido]-3-hydroxybicyclo[2.2.2]octan-1-yl}-4-phenyl-1,3-thiazole-2-carboxamide] | < 50
27 | O=C(COc1ccc(Cl)c(F)c1)NC12CC(NC(=O)c3cnc(C(F)(F)F)o3)(C1)C2 [Compound 1044, N-{3-[2-(4-chloro-3-fluorophenoxy)acetamido]bicyclo[1.1.1]pentan-1-yl}-2-(trifluoromethyl)-1,3-oxazole-5-carboxamide] | 50 to 250
28 | CC(O)c1ncc(C(=O)NC23CCC(NC(=O)COc4ccc(Cl)c(F)c4)(CC2)CC3)s1 (stereo not shown) [Compound 970, N-{4-[2-(4-chloro-3-fluorophenoxy)acetamido]bicyclo[2.2.2]octan-1-yl}-2-(1-hydroxyethyl)-1,3-thiazole-5-carboxamide] | > 2000
29 | COCc1cncc(C(=O)NC23CCC(NC(=O)COc4ccc(Cl)c(Cl)c4)(CC2)CC3)c1 [Compound 992, N-{4-[2-(3,4-dichlorophenoxy)acetamido]bicyclo[2.2.2]octan-1-yl}-5-(methoxymethyl)pyridine-3-carboxamide] | 50 to 250
30 | O=C(COc1ccc(Cl)c(F)c1)NC12CCC(NC(=O)c3cnc4cc(F)ccc4n3)(CC1)C[C@@H]2O [Compound 1006, N-{(3S)-4-[2-(4-chloro-3-fluorophenoxy)acetamido]-3-hydroxybicyclo[2.2.2]octan-1-yl}-6-fluoroquinoxaline-2-carboxamide] | < 50
31 | Cc1csc(C(=O)NC23CCC(NC(=O)COc4ccc(Cl)c(F)c4)(CC2)[C@@H](O)C3)n1 [Compound 1065, N-{(3S)-4-[2-(4-chloro-3-fluorophenoxy)acetamido]-3-hydroxybicyclo[2.2.2]octan-1-yl}-4-methyl-1,3-thiazole-2-carboxamide] | < 50

Source: US20240307382A1, “MODULATORS OF THE INTEGRATED STRESS PATHWAY” (Calico Life Sciences LLC, priority 2017, published 2024)
